Consider two compounds from PMC8453635, “Piperidine Azasugars Bearing Lipophilic Chains: Stereoselective Synthesis and Biological Activity as Inhibitors of Glucocerebrosidase (GCase)” (The Journal of Organic Chemistry, 2021).

The subject of data set [1] is human fibroblasts wild type. In words: MTT cytotoxicity test. Format: cell-based. The following applies: prolonged incubation at 100 and 50 μM. On the procedure: The MTT test was carried out using the human fibroblasts wild type at different concentrations of compound 33·HCl. Fibroblasts were grown in the presence of Dulbecco’s modified Eagle’s medium supplemented with 10% fetal bovine serum (FBS), 1% glutamine, and 1% penicillin–streptomycin, at 37 °C in controlled atmosphere with 5% CO2. For the experiments, cells were seeded at a density of 20,000 cells per well in 24-well plates and grown for 24 h (or 48 h) before adding the compound. The compound was dissolved in water; then, aliquots of these were diluted in the growth medium. To preserve sterility of solutions, these were filtered with 0.22 μm filters before adding to the dishes containing fibroblasts. Then, cells were incubated at 37 °C in 5% CO2 for 24 h (or 48 h). After this time, the media were replaced with medium containing 0.5 mg/mL of 3-(4,5-dimethylthiazol-2-yl)-2,5-diphenyltetrazolium bromide (MTT); the cells were incubated for an additional 1 h at 37 °C in 5% CO2. Finally, the number of viable cells was quantified by the estimation of their dehydrogenase activity, which reduces MTT to water-insoluble formazan. […] The quantitation was carried out measuring the absorbance of samples at 570 nm with the iMark microplate absorbance reader (BIO RAD) in a 96-well format. […]
33.HCl at different concentrations. After this time, the viability of cells was evaluated using MMT assay. […]
Background: Tetrazolium assays rely on reduction of a dye to a coloured formazan, in cell work by metabolically active cells.

The next data set deals with T1, α-glucosidase (Homo sapiens, UniProt P10253).
T1 construct: α-glucosidase from lymphocytes isolated from healthy donors; from tissue; host or cells: lymphocytes from healthy donors' blood, sonicated homogenate
As to the kind of experiment: Human lysosomal glycosidase selectivity screening (lymphocyte homogenate). Format: biochemical. The following applies: 1 mM, read-out: percentage of inhibition, α-Glu. The procedure: In order to avoid undesired inhibitory side effects of a potential new drug, it has to be selective for a given target. The selectivity of the newly synthesized compounds 14, 15, and 33·HCl toward GCase was then investigated, evaluating their inhibition at 1 mM concentration toward six other lysosomal glycosidases (namely, α-and β-mannosidases, α- and β-galactosidases, α-fucosidase, and α-glucosidase) in cell homogenates (leucocytes or lymphocytes) isolated from healthy donors. […] Indeed, only moderate inhibitory activity (ca. 50%) was found toward human β-galactosidase for both piperidines 14 and 15, while negligible inhibitory activity was detected in all other cases. […]
α-Mannosidase activity was measured in a flat-bottomed 96-well plate. […] The reaction was stopped by addition of sodium carbonate (200 μL; 0.5M, pH 10.7) containing Triton X -100 (0.0025 %), and the fluorescence 4 -methylumbelliferone release d by α-mannosidase activity was measured in SpectraMax M2 microplate reader ( λex=365 nm, λem=435 nm; Molecular Devices). […]
β-Mannosidase activity was measured in a flat -bottomed 96 -well plate. […] The reaction was stopped by addition of sodium carbonate (200 μL; 0.5M, pH 10.7) containing Triton X -100 (0.0025 %), and the fluorescence of 4 -methylumbelliferone released by β-mannosidase activity was meas ured in SpectraMax M2 microplate reader ( λex=365 nm, λem=435 nm; […]

Take `CCCCCCCC[C@@H]1[C@@H](O)[C@H](O)[C@H](O)CN1C(CCCCCCC)CCCCCCC.Cl` [compound 33·HCl, (2R,3R,4R,5R)-2-Octyl-1-(pentadecan-8-yl)-piperidine-3,4,5-triol Hydrochloride]: in data set [1], the “cytotoxicity (MTT test)” value is “remarkable cytotoxicity”.
As usually defined, the inhibition is the relative decrease from the control value, in per cent. Take `CCCCCCCC[C@H]1[C@@H](O)[C@H](O)[C@H](O)CN1CCCCCCCC` [compound 14, (2S,3R,4R,5R)-1,2-Dioctylpiperidine-3,4,5-triol]: the inhibition at 1000 µM on α-glucosidase was determined as 18%.
